Assay results: patent publication US10562878B2, “Cycloalkylamines as monoamine reuptake inhibitors” (Sunovion Pharmaceuticals Inc., priority 2006, dated 2020)
pIC50: −log10 of the molar value.

Key:
[1] = biological target: human dopamine transporter (Homo sapiens (Human), UniProt Q01959); test: Dopamine functional uptake assay, recombinant human transporter in CHO-K1 or HEK293 cells; assay type: cell-based; conditions: read-out: hDAT IC50
[2] = biological target: human serotonin transporter (Homo sapiens (Human), UniProt P31645); test: Serotonin functional uptake assay, recombinant human transporter in HEK-293 cells; assay type: cell-based; conditions: Human serotonin transporter uptake; read-out: hSERT IC50
Sequence of human serotonin transporter (P31645 whole entry): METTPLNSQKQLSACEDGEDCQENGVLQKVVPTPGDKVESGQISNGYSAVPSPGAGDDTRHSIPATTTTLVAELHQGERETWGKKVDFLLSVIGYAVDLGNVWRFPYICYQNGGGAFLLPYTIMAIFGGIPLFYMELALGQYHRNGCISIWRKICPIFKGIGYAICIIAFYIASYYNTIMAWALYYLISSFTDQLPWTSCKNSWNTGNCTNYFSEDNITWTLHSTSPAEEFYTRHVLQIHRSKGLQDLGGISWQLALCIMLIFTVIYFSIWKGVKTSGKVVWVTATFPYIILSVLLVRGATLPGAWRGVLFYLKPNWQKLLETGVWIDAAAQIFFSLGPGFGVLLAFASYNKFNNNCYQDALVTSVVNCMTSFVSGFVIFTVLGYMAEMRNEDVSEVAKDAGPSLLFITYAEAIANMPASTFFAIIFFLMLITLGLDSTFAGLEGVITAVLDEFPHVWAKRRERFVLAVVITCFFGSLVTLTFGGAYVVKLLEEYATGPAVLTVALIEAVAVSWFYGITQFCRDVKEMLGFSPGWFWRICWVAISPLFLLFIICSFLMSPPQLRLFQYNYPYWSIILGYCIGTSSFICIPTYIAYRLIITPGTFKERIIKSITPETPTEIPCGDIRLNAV

[3] = biological target: 5-HT Transporter (SERT) sites in mouse brain (Mus musculus (Mouse), UniProt Q60857); test: Ex vivo [3H] citalopram binding to SERT sites in mouse brain after oral dosing; conditions: mice, 60 min after treatment
[4] = biological target: DA Transporter (DAT) sites in mouse brain (Mus musculus (Mouse), UniProt Q61327); test: Ex vivo [3H] WIN 35428 binding to DAT sites in mouse brain after oral dosing; conditions: mice, 60 min after treatment

Sequence of human dopamine transporter (Q01959 whole entry): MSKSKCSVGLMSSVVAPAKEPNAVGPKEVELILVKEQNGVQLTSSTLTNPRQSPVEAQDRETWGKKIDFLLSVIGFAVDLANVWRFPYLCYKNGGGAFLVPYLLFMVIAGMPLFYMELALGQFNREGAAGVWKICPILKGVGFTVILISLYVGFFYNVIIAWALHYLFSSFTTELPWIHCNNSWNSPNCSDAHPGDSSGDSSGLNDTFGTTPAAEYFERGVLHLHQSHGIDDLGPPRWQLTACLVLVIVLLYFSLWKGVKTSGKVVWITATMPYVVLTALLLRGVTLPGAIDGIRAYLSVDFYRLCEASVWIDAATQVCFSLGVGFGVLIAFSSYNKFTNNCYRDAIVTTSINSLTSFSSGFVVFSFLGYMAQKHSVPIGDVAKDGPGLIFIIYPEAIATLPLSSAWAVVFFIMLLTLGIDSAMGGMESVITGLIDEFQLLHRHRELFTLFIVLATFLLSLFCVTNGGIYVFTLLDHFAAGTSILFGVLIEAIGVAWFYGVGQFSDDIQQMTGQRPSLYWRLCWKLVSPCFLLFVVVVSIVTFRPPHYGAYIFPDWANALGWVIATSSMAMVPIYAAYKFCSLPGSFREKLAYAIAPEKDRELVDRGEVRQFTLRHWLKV

CC1(O)CCC(CN)(c2ccc(Cl)c(Cl)c2)CC1 (stereo not drawn) [Compound 272, 4-(aminomethyl)-4-(3,4-dichlorophenyl)-1-methylcyclohexanol]
pIC50 [1]: 5.58

CNC[C@]1(c2ccc(OC(F)(F)F)cc2)CCCC[C@H]1O (single isomer, unassigned) [146 E1, trans-2-((Methylamino)methyl)-2-(4-(trifluoromethoxy)phenyl) cyclohexanol]
pIC50 [2]: 5.34

NC[C@]1(c2ccc(Cl)c(Cl)c2)CCC[C@H](O)C1 (single isomer, unassigned) [184 E1, Cis-3-(aminomethyl)-3-(3,4-dichlorophenyl)cyclohexanol]
pIC50 [1]: 6.67

NC[C@@]1(c2ccc(Cl)c(Cl)c2)CCC[C@H](O)C1 (single isomer, unassigned) [185 E2, Trans-3-(aminomethyl)-3-(3,4-dichlorophenyl)cyclohexanol]
pIC50 [1]: 6.92

CC1(O)CCC(CN)(c2ccc(Cl)c(Cl)c2)CC1 (stereo not drawn) [Compound 275, 4-(aminomethyl)-4-(3,4-dichlorophenyl)-1-methylcyclohexanol]
pIC50 [1]: 6.29

COc1ccc([C@]2(CN(C)C)CCCC[C@H]2O)cc1 (single isomer, unassigned) [155 E1, Cis-2-((dimethylamino)methyl)-2-(4-methoxyphenyl)cyclohexanol]
pIC50 [2]: 5.52

CN(C)C[C@@]1(c2ccc(Cl)c(Cl)c2)CCC[C@H](O)C1 (single isomer, unassigned) [191 E2, Trans-3-(3,4-dichlorophenyl)-3-((dimethylamino)methyl)cyclohexanol]
pIC50 [1]: 8.70

CNC[C@]1(c2ccc(Cl)cc2)CCCC[C@H]1O (single isomer, unassigned) [136 E1, trans-2-(4-chlorophenyl)-2-((methylamino)methyl)-cyclohexanol]
pIC50 [1]: 5.54

CNC[C@]1(c2ccc(Cl)cc2)CCCC[C@H]1O (single isomer, unassigned) [136 E2, trans-2-(4-chlorophenyl)-2-((methylamino)methyl)-cyclohexanol]
pIC50 [1]: 5.47

CNC[C@]1(c2ccc(OC)cc2)CCCC[C@H]1O (single isomer, unassigned) [140 E2, (±) trans-2-(4-Methoxyphenyl)-2-((methylamino)methyl)cyclohexanol]
pIC50 [1]: 5.25

NC[C@@]1(c2ccc(Cl)c(Cl)c2)CCC[C@H](O)C1 (single isomer, unassigned) [185 E1, Trans-3-(aminomethyl)-3-(3,4-dichlorophenyl)cyclohexanol]
pIC50 [1]: 6.38

COc1ccc([C@]2(CN(C)C)CCCC[C@H]2O)cc1 (single isomer, unassigned) [155 E2, Cis-2-((dimethylamino)methyl)-2-(4-methoxyphenyl)cyclohexanol]
pIC50 [2]: 5.20

CN(C)C[C@]1(c2ccc(Cl)c(Cl)c2)CCC[C@H](O)C1 (single isomer, unassigned) [190 E1, Cis-3-(3,4-dichlorophenyl)-3-((dimethylamino)methyl)cyclohexanol]
pIC50 [1]: 7.62

NC[C@]1(c2ccc(Cl)c(Cl)c2)CCC[C@H](O)C1 (single isomer, unassigned) [184 E2, Cis-3-(aminomethyl)-3-(3,4-dichlorophenyl)cyclohexanol]
pIC50 [1]: 6.10

CNC(C)C1(c2ccc3ccccc3c2)CCCCC1 (single isomer, unassigned) [58 E1, N-methyl-1-(1-(naphthalen-2-yl)cyclohexyl)ethanamine]
SERT Mean Specific Binding ± S.E.M. ([3]; 1 mg/kg PO): 3245 ± 107 dpm
SERT Mean Specific Binding ± S.E.M. ([3]; 3 mg/kg PO): 3021 ± 182 dpm
SERT Mean Specific Binding ± S.E.M. ([3]; 10 mg/kg PO): 1799 ± 115 dpm
SERT Mean Specific Binding ± S.E.M. ([3]; 30 mg/kg PO): 469 ± 43 dpm
receptor occupancy at 1 mg/kg ([3]; mouse, 1 mg/kg PO): 5%
receptor occupancy at 3 mg/kg ([3]; mouse, 3 mg/kg PO): 11%
receptor occupancy at 10 mg/kg ([3]; mouse, 10 mg/kg PO): 47%
receptor occupancy at 30 mg/kg ([3]; mouse, 30 mg/kg PO): 86%
DAT Mean Specific Binding ± S.E.M. ([4]; 1 mg/kg PO): 15732 ± 1360 dpm
DAT Mean Specific Binding ± S.E.M. ([4]; 3 mg/kg PO): 14938 ± 2613 dpm
DAT Mean Specific Binding ± S.E.M. ([4]; 10 mg/kg PO): 17215 ± 2151 dpm
DAT Mean Specific Binding ± S.E.M. ([4]; 30 mg/kg PO): 12876 ± 2152 dpm
receptor occupancy at 1 mg/kg ([4]; mouse, 1 mg/kg PO): 7%
receptor occupancy at 3 mg/kg ([4]; mouse, 3 mg/kg PO): 11%
receptor occupancy at 10 mg/kg ([4]; mouse, 10 mg/kg PO): -2%
receptor occupancy at 30 mg/kg ([4]; mouse, 30 mg/kg PO): 24%
